Values joined by “and” are separate entries in the source; they are usually repeats but may differ in a detail not shown here. Equal values may be shown once.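 Five concentrations, 48 hours, 96-well plates. GI50 = concentration required for 50% inhibition of growth. At the TGI there is no net growth.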

Test systems include CAKI-1 renal; HOP-18 NSCLC; OVCAR-4 ovarian; RPMI-8226 leukemia; SNB-78 CNS; MDA-MB-435; PC-3 prostate; T-47D breast; KM20L2 colon; XF 498 CNS.
What all share (experiment): NCI anticancer screen, dose series, 48 h

`CCC1(OC(=O)CN)C(=O)OCc2c1cc1n(c2=O)Cc2cc3cc4c(cc3nc2-1)OCO4` (stereo not given): the GI50 is less than 0.01 µM in the assay with CAKI-1 renal; 0.166 µM and 0.0534 µM in the assay with HOP-18 NSCLC; 0.216 µM and 0.0574 µM in the assay on OVCAR-4 ovarian; 0.0253 µM and 0.0231 µM in the assay on RPMI-8226 leukemia; 0.468 µM in the assay on SNB-78 CNS. The TGI in the assay with CAKI-1 renal is 0.171 µM; with HOP-18 NSCLC, 2.63 µM and 2.24 µM; in the assay on SNB-78 CNS, 81.8 µM.
Consider `CCN(CCCl)c1cccc(NC(=O)c2ccc(C(=O)Nc3cccc(CN(C)C)c3)cc2)c1`, for which the TGI was 1.58 µM in the assay with CAKI-1 renal; 0.114 µM in the assay with MDA-MB-435; 0.611 µM with OVCAR-4 ovarian; 1.02 µM in the assay with PC-3 prostate; 27 µM in the assay with RPMI-8226 leukemia; 0.662 µM with T-47D breast.
In the case of `CS(=O)(=O)[O-].CS(=O)(=O)[O-].NC1CCCCC1N.[Pt+4]` (stereo not given), the GI50 with CAKI-1 renal was 41.8 µM; in the assay with HOP-18 NSCLC, greater than 100 µM; in the assay with KM20L2 colon, greater than 51.3 µM; in the assay with OVCAR-4 ovarian, greater than 100 µM; in the assay with RPMI-8226 leukemia, 17.7 µM; with SNB-78 CNS it was greater than 100 µM. Also, the TGI with CAKI-1 renal, in the assay with HOP-18 NSCLC, in the assay with KM20L2 colon, with OVCAR-4 ovarian, with RPMI-8226 leukemia and with SNB-78 CNS was greater than 100 µM in each case.
In the case of `CCN(CC)/[N+]([O-])=N/O`, the TGI in the assay with CAKI-1 renal, in the assay with KM20L2 colon, in the assay on SNB-78 CNS and in the assay with XF 498 CNS was greater than 100 µM in each case.
Regarding `Cn1c(=O)n(CC2CS2)c2ccccc21` (stereo not given), the TGI with CAKI-1 renal, in the assay with KM20L2 colon, in the assay with OVCAR-4 ovarian, in the assay on RPMI-8226 leukemia and in the assay with XF 498 CNS was greater than 100 µM in each case.
On to `CC1(C)[C@@H](OC(N)=O)C=C[C@]2(CO)[C@H]3CC[C@]4(C)[C@@H](c5ccc(=O)oc5)[C@@H](Cl)C[C@]4(O)C3=CC[C@@H]12`, for which the GI50 in the assay with MDA-MB-435 was 0.00814 µM; in the assay with OVCAR-4 ovarian, less than 0.0001 µM; in the assay with PC-3 prostate, 0.00189 µM; in the assay with RPMI-8226 leukemia, 0.00917 µM; with T-47D breast, 0.00359 µM. Further, the TGI amounted to 0.0215 µM in the assay on MDA-MB-435; 0.00372 µM with OVCAR-4 ovarian; 0.0137 µM in the assay with PC-3 prostate; 0.0956 µM in the assay with RPMI-8226 leukemia; 0.0326 µM in the assay with T-47D breast.

Source of the values: PubChem BioAssay (NCI).
